system: ALOMY (blackgrass); assay: Post-Emergent Test III (Wheat and Barley); format: in vivo, Alopecurus myosuroides; conditions: Alopecurus myosuroides, post-emergence, 504 h; 35 g ai/ha, postemergence; read-out: Visual Growth Reduction (%) 21 Days After Application, ALOMY
Experimental: (§1) Seeds of the desired test plant species were planted in Sun Gro MetroMix® 306 planting mixture, which typically has a pH of 6.0 to 6.8 and an organic matter content of about 30 percent, in plastic pots with a surface area of 103.2 square centimeters (cm^2). When required to ensure good germination and healthy plants, a fungicide treatment and/or other chemical or physical treatment was applied. The plants were grown for 7-36 days in a greenhouse with an approximate 14 h photoperiod which was maintained at about 18° C. during the day and 17° C. during the night. Nutrients and water were added on a regular basis and supplemental lighting was provided with overhead metal halide 1000-Watt lamps as necessary. The plants were employed for testing when they reached the second or third true leaf stage.
(§2) A weighed amount, determined by the highest rate to be tested, of each test compound was placed in a 25 mL glass vial and was dissolved in 4 mL of a 97:3 v/v mixture of acetone and DMSO to obtain concentrated stock solutions. […] The concentrated stock solutions obtained were diluted with 20 mL of an aqueous mixture containing acetone, water, isopropyl alcohol, DMSO, Agri-Dex crop oil concentrate, and X-77 surfactant in a 48:39:10:1.5:1.5:0.02 v/v ratio to obtain spray solutions containing the highest application rates. Additional application rates were obtained by serial dilution of 12 mL of the high rate solution into a solution containing 2 mL of 97:3 v/v mixture of acetone and DMSO and 10 mL of an aqueous mixture containing acetone, water, isopropyl alcohol, DMSO, Agri-Dex crop oil concentrate, and X-77 surfactant in a 48:39:10:1.5:1.5:0.02 v/v ratio to obtain ½×, ¼×, ⅛× and 1/16× rates of the high rate. Compound requirements are based upon a 12 mL application volume at a rate of 187 liters per hectare (L/ha). Formulated compounds were applied to the plant material with an overhead Mandel track sprayer equipped with 8002E nozzles calibrated to deliver 187 L/ha over an application area of 0.503 square meters at a spray height of 18 inches (43 cm) above the average plant canopy height. Control plants were sprayed in the same manner with the solvent blank.
(§3) The treated plants and control plants were placed in a greenhouse as described above and watered by subirrigation to prevent wash-off of the test compounds. After 21 dAYS, the condition of the test plants as compared with that of the untreated plants was determined visually and scored on a scale of 0 to 100 percent where 0 corresponds to no injury and 100 corresponds to complete kill and presented as indicated in Table A.
(§4) By applying the well-accepted probit analysis as described by J. Berkson in Journal of the American Statistical Society, 48, 565 (1953) and by D. Finney in “Probit Analysis” Cambridge University Press (1952), herbicidal injury of a specific compound at various rates can be used to calculate GR10, GR20, GR50, GR80 and GR90 values, which are defined as growth reduction factors that correspond to the effective dose of herbicide required to provide plant growth reduction (GR) of 10 percent, 20 percent, 50 percent, 80 percent and 90 percent, respectively. Probit analysis was applied to data collected from multiple dose rates of individual compounds utilizing the procedures explained in the following examples. The analysis of those dose rates is captured in the following tables.

Row | SMILES | pest or weed control at 35 g/ha [%]
1 | COC(=O)c1nc(-c2ccc(C3CC3)nc2)c(F)c(N)c1Cl [Compound 49] | 0 to 29

same assay, conditions: Alopecurus myosuroides, post-emergence, 504 h; 70 g ai/ha, postemergence; read-out: Visual Growth Reduction (%) 21 Days After Application, ALOMY

Row | SMILES | pest or weed control at 70 g/ha [%]
2 | COC(=O)c1nc(-c2ccc(C3CC3)nc2)c(F)c(N)c1Cl [Compound 49] | 30 to 44

same assay, conditions: Alopecurus myosuroides, post-emergence, 504 h; 140 g ai/ha, postemergence; read-out: Visual Growth Reduction (%) 21 Days After Application, ALOMY

Row | SMILES | pest or weed control at 140 g/ha [%]
3 | COC(=O)c1nc(-c2ccc(C3CC3)nc2)c(F)c(N)c1Cl [Compound 49] | 45 to 59

same assay, conditions: effective dose for growth reduction of 50 percent, probit analysis

Row | SMILES | GR50, ALOMY [g ai/ha]
4 | COC(=O)c1nc(-c2ccc(C3CC3)nc2)c(F)c(N)c1Cl [Compound 49] | >140

same assay, conditions: effective dose for growth reduction of 80 percent, probit analysis

Row | SMILES | GR80, ALOMY [g ai/ha]
5 | COC(=O)c1nc(-c2ccc(C3CC3)nc2)c(F)c(N)c1Cl [Compound 49] | >140

system: TRZSS; assay: Post-Emergent Test III (Wheat and Barley); format: in vivo; conditions: Triticum aestivum, post-emergence, 504 h; 35 g ai/ha, postemergence; read-out: Visual Growth Reduction (%) 21 Days After Application, TRZSS
Experimental: as §1, §2, §3, §4

Row | SMILES | pest or weed control at 35 g/ha [%]
6 | COC(=O)c1nc(-c2ccc(C3CC3)nc2)c(F)c(N)c1Cl [Compound 49] | 75 to 84

same assay, conditions: Triticum aestivum, post-emergence, 504 h; 70 g ai/ha, postemergence; read-out: Visual Growth Reduction (%) 21 Days After Application, TRZSS

Row | SMILES | pest or weed control at 70 g/ha [%]
7 | COC(=O)c1nc(-c2ccc(C3CC3)nc2)c(F)c(N)c1Cl [Compound 49] | 85 to 94

same assay, conditions: Triticum aestivum, post-emergence, 504 h; 140 g ai/ha, postemergence; read-out: Visual Growth Reduction (%) 21 Days After Application, TRZSS

Row | SMILES | pest or weed control at 140 g/ha [%]
8 | COC(=O)c1nc(-c2ccc(C3CC3)nc2)c(F)c(N)c1Cl [Compound 49] | 85 to 94

same assay, conditions: effective dose for growth reduction of 20 percent, probit analysis

Row | SMILES | GR20, TRZSS [g ai/ha]
9 | COC(=O)c1nc(-c2ccc(C3CC3)nc2)c(F)c(N)c1Cl [Compound 49] | 1

system: HORSS; assay: Post-Emergent Test III (Wheat and Barley); format: in vivo; conditions: Hordeum vulgare, post-emergence, 504 h; 35 g ai/ha, postemergence; read-out: Visual Growth Reduction (%) 21 Days After Application, HORSS
Experimental: as §1, §2, §3, §4

Row | SMILES | pest or weed control at 35 g/ha [%]
10 | COC(=O)c1nc(-c2ccc(C3CC3)nc2)c(F)c(N)c1Cl [Compound 49] | 75 to 84

same assay, conditions: Hordeum vulgare, post-emergence, 504 h; 70 g ai/ha, postemergence; read-out: Visual Growth Reduction (%) 21 Days After Application, HORSS

Row | SMILES | pest or weed control at 70 g/ha [%]
11 | COC(=O)c1nc(-c2ccc(C3CC3)nc2)c(F)c(N)c1Cl [Compound 49] | 85 to 94

same assay, conditions: Hordeum vulgare, post-emergence, 504 h; 140 g ai/ha, postemergence; read-out: Visual Growth Reduction (%) 21 Days After Application, HORSS

Row | SMILES | pest or weed control at 140 g/ha [%]
12 | COC(=O)c1nc(-c2ccc(C3CC3)nc2)c(F)c(N)c1Cl [Compound 49] | 85 to 94

same assay, conditions: effective dose for growth reduction of 20 percent, probit analysis

Row | SMILES | GR20, HORSS [g ai/ha]
13 | COC(=O)c1nc(-c2ccc(C3CC3)nc2)c(F)c(N)c1Cl [Compound 49] | 1

system: SETVI (green foxtail); assay: Post-Emergent Test III (Wheat and Barley); format: in vivo, Setaria viridis; conditions: Setaria viridis, post-emergence, 504 h; 35 g ai/ha, postemergence; read-out: Visual Growth Reduction (%) 21 Days After Application, SETVI
Experimental: as §1, §2, §3, §4

Row | SMILES | pest or weed control at 35 g/ha [%]
14 | COC(=O)c1nc(-c2ccc(C3CC3)nc2)c(F)c(N)c1Cl [Compound 49] | 30 to 44

same assay, conditions: Setaria viridis, post-emergence, 504 h; 70 g ai/ha, postemergence; read-out: Visual Growth Reduction (%) 21 Days After Application, SETVI

Row | SMILES | pest or weed control at 70 g/ha [%]
15 | COC(=O)c1nc(-c2ccc(C3CC3)nc2)c(F)c(N)c1Cl [Compound 49] | 95 to 100

same assay, conditions: Setaria viridis, post-emergence, 504 h; 140 g ai/ha, postemergence; read-out: Visual Growth Reduction (%) 21 Days After Application, SETVI

Row | SMILES | pest or weed control at 140 g/ha [%]
16 | COC(=O)c1nc(-c2ccc(C3CC3)nc2)c(F)c(N)c1Cl [Compound 49] | 95 to 100

same assay, conditions: effective dose for growth reduction of 50 percent, probit analysis

Row | SMILES | GR50, SETVI [g ai/ha]
17 | COC(=O)c1nc(-c2ccc(C3CC3)nc2)c(F)c(N)c1Cl [Compound 49] | 28

same assay, conditions: effective dose for growth reduction of 80 percent, probit analysis

Row | SMILES | GR80, SETVI [g ai/ha]
18 | COC(=O)c1nc(-c2ccc(C3CC3)nc2)c(F)c(N)c1Cl [Compound 49] | 57

system: KCHSC (kochia); assay: Post-Emergent Test III (Wheat and Barley); format: in vivo, Kochia scoparia; conditions: Bassia scoparia, post-emergence, 504 h; 35 g ai/ha, postemergence; read-out: Visual Growth Reduction (%) 21 Days After Application, KCHSC
Experimental: as §1, §2, §3, §4

Row | SMILES | pest or weed control at 35 g/ha [%]
19 | COC(=O)c1nc(-c2ccc(C3CC3)nc2)c(F)c(N)c1Cl [Compound 49] | 95 to 100

same assay, conditions: Bassia scoparia, post-emergence, 504 h; 70 g ai/ha, postemergence; read-out: Visual Growth Reduction (%) 21 Days After Application, KCHSC

Row | SMILES | pest or weed control at 70 g/ha [%]
20 | COC(=O)c1nc(-c2ccc(C3CC3)nc2)c(F)c(N)c1Cl [Compound 49] | 95 to 100

same assay, conditions: Bassia scoparia, post-emergence, 504 h; 140 g ai/ha, postemergence; read-out: Visual Growth Reduction (%) 21 Days After Application, KCHSC

Row | SMILES | pest or weed control at 140 g/ha [%]
21 | COC(=O)c1nc(-c2ccc(C3CC3)nc2)c(F)c(N)c1Cl [Compound 49] | 85 to 94

same assay, conditions: effective dose for growth reduction of 50 percent, probit analysis

Row | SMILES | GR50, KCHSC [g ai/ha]
22 | COC(=O)c1nc(-c2ccc(C3CC3)nc2)c(F)c(N)c1Cl [Compound 49] | 9

same assay, conditions: effective dose for growth reduction of 80 percent, probit analysis

Row | SMILES | GR80, KCHSC [g ai/ha]
23 | COC(=O)c1nc(-c2ccc(C3CC3)nc2)c(F)c(N)c1Cl [Compound 49] | 17

system: APESV (windgrass); assay: Post-Emergent Test III (Wheat and Barley); format: in vivo, Apera spica-venti; conditions: Apera spica-venti, post-emergence, 504 h; 35 g ai/ha, postemergence; read-out: Visual Growth Reduction (%) 21 Days After Application, APESV
Experimental: as §1, §2, §3, §4

Row | SMILES | pest or weed control at 35 g/ha [%]
24 | COC(=O)c1nc(-c2ccc(C3CC3)nc2)c(F)c(N)c1Cl [Compound 49] | 85 to 94

same assay, conditions: Apera spica-venti, post-emergence, 504 h; 70 g ai/ha, postemergence; read-out: Visual Growth Reduction (%) 21 Days After Application, APESV

Row | SMILES | pest or weed control at 70 g/ha [%]
25 | COC(=O)c1nc(-c2ccc(C3CC3)nc2)c(F)c(N)c1Cl [Compound 49] | 75 to 84

same assay, conditions: Apera spica-venti, post-emergence, 504 h; 140 g ai/ha, postemergence; read-out: Visual Growth Reduction (%) 21 Days After Application, APESV

Row | SMILES | pest or weed control at 140 g/ha [%]
26 | COC(=O)c1nc(-c2ccc(C3CC3)nc2)c(F)c(N)c1Cl [Compound 49] | 85 to 94

same assay, conditions: effective dose for growth reduction of 50 percent, probit analysis

Row | SMILES | GR50, APESV [g ai/ha]
27 | COC(=O)c1nc(-c2ccc(C3CC3)nc2)c(F)c(N)c1Cl [Compound 49] | 1

same assay, conditions: effective dose for growth reduction of 80 percent, probit analysis

Row | SMILES | GR80, APESV [g ai/ha]
28 | COC(=O)c1nc(-c2ccc(C3CC3)nc2)c(F)c(N)c1Cl [Compound 49] | 24
